In patent US20240228506A1, “RIPK1 INHIBITORS AND METHODS OF USE” (Merck Sharp & Dohme LLC, priority 2021, published 2024):

Target: T1, GST-RIPK1 (recombinant GST-RIPK1 kinase domain (residues 1-327)) (Homo sapiens, UniProt Q13546)
T1 construct: recombinant GST-RIPK1 kinase domain (residues 1-327) enzyme; made in house; host or cells: baculovirus-transfected Sf21 insect cells
T1 sequence (Q13546 1-327): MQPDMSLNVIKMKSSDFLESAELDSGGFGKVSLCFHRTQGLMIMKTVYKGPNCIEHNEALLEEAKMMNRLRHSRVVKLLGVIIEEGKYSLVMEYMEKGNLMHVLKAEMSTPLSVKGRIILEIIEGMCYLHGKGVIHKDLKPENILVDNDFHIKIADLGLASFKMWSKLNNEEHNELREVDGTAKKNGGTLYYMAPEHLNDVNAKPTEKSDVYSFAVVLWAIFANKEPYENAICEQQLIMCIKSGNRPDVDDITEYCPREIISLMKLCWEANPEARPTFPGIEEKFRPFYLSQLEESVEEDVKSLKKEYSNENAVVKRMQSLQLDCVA
Assay: RIPK1-ADP-Glo enzymatic assay
Type: biochemical
Conditions: 25 nM GST-RIPK1, 300 μM ATP, 3 μM dephosphorylated-MBP; 30 minutes pre-incubation, 150 minutes reaction; ten-point titration
How it was run: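 Ten-point 1:3 titrations from 100000 nM, 1% DMSO, were preincubated 30 min with 25 nM GST-RIPK1 (1-327) before starting with 300 μM ATP plus 3 μM dephosphorylated MBP; 150 min reaction. ADP-Glo luminescence measured ATP-to-ADP conversion; EC50 by four-parameter sigmoidal regression.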

IC50	Compound
0.019 µM	COc1ccc(C#Cc2cncc3c2O[C@H]2C[C@@H]3N(C(=O)C(C)(C)C(F)F)C2)cn1 [Compound 2-92, 3,3-difluoro-1-((2S,5S)-9-((6-methoxypyridin-3-yl)ethynyl)-2,3-dihydro-2,5-methanopyrido[3,4-f][1,4]oxazepin-4(5H)-yl)-2,2-dimethylpropan-1-one]
0.058 µM	CC(C)(C(=O)N1C[C@@H]2C[C@H]1c1cncc(C#Cc3cnc4cncn4c3)c1O2)C(F)F [Compound 2-93, 3,3-difluoro-1-((2S,5S)-9-(imidazo[1,5-a]pyrimidin-3-ylethynyl)-2,3-dihydro-2,5-methanopyrido[3,4-f][1,4]oxazepin-4(5H)-yl)-2,2-dimethylpropan-1-one]
0.049 µM	COc1ncc(C#Cc2cncc3c2O[C@H]2C[C@@H]3N(C(=O)C(C)(C)C(F)F)C2)c(OC)n1 [Compound 2-94, 1-((2S,5S)-9-((2,4-dimethoxypyrimidin-5-yl)ethynyl)-2,3-dihydro-2,5-methanopyrido[3,4-f][1,4]oxazepin-4(5H)-yl)-3,3-difluoro-2,2-dimethylpropan-1-one]
0.036 µM	Cc1ncc(C#Cc2cncc3c2O[C@H]2C[C@@H]3N(C(=O)C(C)(C)C(F)F)C2)c(C)n1 [Compound 2-95, 1-((2S,5S)-9-((2,4-dimethylpyrimidin-5-yl)ethynyl)-2,3-dihydro-2,5-methanopyrido[3,4-f][1,4]oxazepin-4(5H)-yl)-3,3-difluoro-2,2-dimethylpropan-1-one]
0.048 µM	O=C(N1C[C@@H]2C[C@H]1c1cncc(C#Cc3cncc(F)c3)c1O2)C12CCC(C(F)(F)F)(CC1)C2 [Compound 2-96, ((2S,5S)-9-((5-Fluoropyridin-3-yl)ethynyl)-2,3-dihydro-2,5-methanopyrido[3,4-f][1,4]oxazepin-4(5H)-yl)(4-(trifluoromethyl)bicyclo[2.2.1]heptan-1-yl)methanone]
0.018 µM	O=C(N1C[C@@H]2C[C@H]1c1cncc(C#Cc3ccccc3)c1O2)C12CCC(F)(CC1)C2 [Compound 2-97, (4-Fluorobicyclo[2.2.1]heptan-1-yl)((2S,5S)-9-(phenylethynyl)-2,3-dihydro-2,5-methanopyrido[3,4-f][1,4]oxazepin-4(5H)-yl)methanone]
0.013 µM	COc1cccc(C#Cc2cncc3c2O[C@H]2C[C@@H]3N(C(=O)C34CCC(F)(CC3)C4)C2)c1 [Compound 2-98, (4-fluorobicyclo[2.2.1]heptan-1-yl)((2S,5S)-9-((3-methoxyphenyl)ethynyl)-2,3-dihydro-2,5-methanopyrido[3,4-f][1,4]oxazepin-4(5H)-yl)methanone]
0.01 µM	N#CCc1cccc(C#Cc2cncc3c2O[C@H]2C[C@@H]3N(C(=O)C34CCC(F)(CC3)C4)C2)c1 [Compound 2-99, 2-(3-(((2S,5S)-4-(4-fluorobicyclo[2.2.1]heptane-1-carbonyl)-2,3,4,5-tetrahydro-2,5-methanopyrido[3,4-f][1,4]oxazepin-9-yl)ethynyl)phenyl) acetonitrile]
0.012 µM	N#Cc1cccc(C#Cc2cncc3c2O[C@H]2C[C@@H]3N(C(=O)C34CCC(F)(CC3)C4)C2)c1 [Compound 2-100, 3-(((2S,5S)-4-(4-fluorobicyclo[2.2.1]heptane-1-carbonyl)-2,3,4,5-tetrahydro-2,5-methanopyrido[3,4-f][1,4]oxazepin-9-yl)ethynyl)benzonitrile]
0.012 µM	O=C(N1C[C@@H]2C[C@H]1c1cncc(C#Cc3cccnc3)c1O2)C12CCC(F)(CC1)C2 [Compound 2-101, (4-fluorobicyclo[2.2.1]heptan-1-yl)((2S,5S)-9-(pyridin-3-ylethynyl)-2,3-dihydro-2,5-methanopyrido[3,4-f][1,4]oxazepin-4(5H)-yl)methanone]
0.013 µM	O=C(N1C[C@@H]2C[C@H]1c1cncc(C#Cc3cncnc3)c1O2)C12CCC(F)(CC1)C2 [Compound 2-102, (4-fluorobicyclo[2.2.1]heptan-1-yl)((2S,5S)-9-(pyrimidin-5-ylethynyl)-2,3-dihydro-2,5-methanopyrido[3,4-f][1,4]oxazepin-4(5H)-yl)methanone]
0.021 µM	Cc1ccc(C#Cc2cncc3c2O[C@H]2C[C@@H]3N(C(=O)C34CCC(F)(CC3)C4)C2)cc1 [Compound 2-103, (4-fluorobicyclo[2.2.1]heptan-1-yl)((2S,5S)-9-(p-tolylethynyl)-2,3-dihydro-2,5-methanopyrido[3,4-f][1,4]oxazepin-4(5H)-yl)methanone]
0.023 µM	Cc1cccc(C#Cc2cncc3c2O[C@H]2C[C@@H]3N(C(=O)C34CCC(F)(CC3)C4)C2)c1 [Compound 2-104, (4-fluorobicyclo[2.2.1]heptan-1-yl)((2S,5S)-9-(m-tolylethynyl)-2,3-dihydro-2,5-methanopyrido[3,4-f][1,4]oxazepin-4(5H)-yl)methanone]
0.018 µM	N#CCc1ccc(C#Cc2cncc3c2O[C@H]2C[C@@H]3N(C(=O)C34CCC(F)(CC3)C4)C2)cc1 [Compound 2-105]
0.197 µM	CC(C)C#Cc1cncc2c1O[C@H]1C[C@@H]2N(C(=O)C(C)(C)C(F)F)C1 [Compound 2-106, 3,3-Difluoro-2,2-dimethyl-1-((2S,5S)-9-(3-methylbut-1-yn-1-yl)-2,3-dihydro-2,5-methanopyrido[3,4-f][1,4]oxazepin-4(5H)-yl)propan-1-one]
0.15 µM	CC(C)(C(=O)N1C[C@@H]2C[C@H]1c1cncc(C#CCC3CCOCC3)c1O2)C(F)F [Compound 2-107, 3,3-difluoro-2,2-dimethyl-1-((2S,5S)-9-(3-(tetrahydro-2H-pyran-4-yl)prop-1-yn-1-yl)-2,3-dihydro-2,5-methanopyrido[3,4-f][1,4]oxazepin-4(5H)-yl)propan-1-one]
0.163 µM	CC(C)(C)CCC#Cc1cncc2c1O[C@H]1C[C@@H]2N(C(=O)C(C)(C)C(F)F)C1 [Compound 2-108, 1-((2S,5S)-9-(5,5-dimethylhex-1-yn-1-yl)-2,3-dihydro-2,5-methanopyrido[3,4-f][1,4]oxazepin-4(5H)-yl)-3,3-difluoro-2,2-dimethylpropan-1-one]
0.184 µM	CC(C)(C(=O)N1C[C@@H]2C[C@H]1c1cncc(C#CCC3CCCCC3)c1O2)C(F)F [Compound 2-109, 1-((2S,5S)-9-(3-cyclohexylprop-1-yn-1-yl)-2,3-dihydro-2,5-methanopyrido[3,4-f][1,4]oxazepin-4(5H)-yl)-3,3-difluoro-2,2-dimethylpropan-1-one]
0.197 µM	CC(C)(C(=O)N1C[C@@H]2C[C@H]1c1cncc(C#CCCc3ccccc3)c1O2)C(F)F [Compound 2-110, 3,3-difluoro-2,2-dimethyl-1-((2S,5S)-9-(4-phenylbut-1-yn-1-yl)-2,3-dihydro-2,5-methanopyrido[3,4-f][1,4]oxazepin-4(5H)-yl)propan-1-one]
0.266 µM	CC(C)(C(=O)N1C[C@@H]2C[C@H]1c1cncc(C#CCCC(F)(F)F)c1O2)C(F)F [Compound 2-111, 3,3-difluoro-2,2-dimethyl-1-((2S,5S)-9-(5,5,5-trifluoropent-1-yn-1-yl)-2,3-dihydro-2,5-methanopyrido[3,4-f][1,4]oxazepin-4(5H)-yl)propan-1-one]
0.083 µM	CC[C@H](C)CC#Cc1cncc2c1O[C@H]1C[C@@H]2N(C(=O)C(C)(C)C(F)F)C1 [Compound 2-112, 3,3-difluoro-2,2-dimethyl-1-((2S,5S)-9-((S)-4-methylhex-1-yn-1-yl)-2,3-dihydro-2,5-methanopyrido[3,4-f][1,4]oxazepin-4(5H)-yl)propan-1-one]
0.116 µM	CC(C)(C(=O)N1C[C@@H]2C[C@H]1c1cncc(C#CCF)c1O2)C(F)F [Compound 2-113, 3,3-difluoro-1-((2S,5S)-9-(3-fluoroprop-1-yn-1-yl)-2,3-dihydro-2,5-methanopyrido[3,4-f][1,4]oxazepin-4(5H)-yl)-2,2-dimethylpropan-1-one]
1.53 µM	CC(C)(C(=O)N1C[C@@H]2C[C@H]1c1cncc(C#CC34CC(C(F)(F)F)(C3)C4)c1O2)C(F)F [Compound 2-114, 3,3-difluoro-2,2-dimethyl-1-((2S,5S)-9-((3-(trifluoromethyl)bicyclo [1.1.1]pentan-1-yl)ethynyl)-2,3-dihydro-2,5-methanopyrido[3,4-f][1,4]oxazepin-4(5H)-yl)propan-1-one]
0.032 µM	O=C(N1C[C@@H]2C[C@H]1c1cncc(C#CC3CC3)c1O2)C12CCC(F)(CC1)C2 [Compound 2-115, ((2S,5S)-9-(Cyclopropylethynyl)-2,3-dihydro-2,5-methanopyrido[3,4-f][1,4]oxazepin-4(5H)-yl)(4-fluorobicyclo[2.2.1]heptan-1-yl)methanone]
0.376 µM	CC1(CC#Cc2cncc3c2O[C@H]2C[C@@H]3N(C(=O)C34CCC(F)(CC3)C4)C2)COC1 [Compound 2-116, (4-fluorobicyclo[2.2.1]heptan-1-yl)((2S,5S)-9-(3-(3-methyloxetan-3-yl)prop-1-yn-1-yl)-2,3-dihydro-2,5-methanopyrido[3,4-f][1,4]oxazepin-4(5H)-yl)methanone]
0.043 µM	CCC#Cc1cncc2c1O[C@H]1C[C@@H]2N(C(=O)C23CCC(F)(CC2)C3)C1 [Compound 2-117]
0.064 µM	O=C(N1C[C@@H]2C[C@H]1c1cncc(C#CCC3CCOC3)c1O2)C12CCC(F)(CC1)C2 (stereo partly drawn) [Compound 2-118, (4-fluorobicyclo[2.2.1]heptan-1-yl)((2S,5S)-9-(3-(tetrahydrofuran-3-yl)prop-1-yn-1-yl)-2,3-dihydro-2,5-methanopyrido[3,4-f][1,4]oxazepin-4(5H)-yl)methanone]
